Results reported in US7432365B1, “DNA molecules encoding beta clamp proteins of gram positive bacteria” (priority 1998, dated 2008).

T1: Peak4 (Pol III-L) (Staphylococcus aureus, UniProt P0C1P9)
T1 construct: peak 4 (last peak off Mono Q); endogenous in cells; host or cells: S. aureus strain 4220 lysate, MonoQ peak 4 (partially pure)
T1 sequence (P0C1P9 1-1435): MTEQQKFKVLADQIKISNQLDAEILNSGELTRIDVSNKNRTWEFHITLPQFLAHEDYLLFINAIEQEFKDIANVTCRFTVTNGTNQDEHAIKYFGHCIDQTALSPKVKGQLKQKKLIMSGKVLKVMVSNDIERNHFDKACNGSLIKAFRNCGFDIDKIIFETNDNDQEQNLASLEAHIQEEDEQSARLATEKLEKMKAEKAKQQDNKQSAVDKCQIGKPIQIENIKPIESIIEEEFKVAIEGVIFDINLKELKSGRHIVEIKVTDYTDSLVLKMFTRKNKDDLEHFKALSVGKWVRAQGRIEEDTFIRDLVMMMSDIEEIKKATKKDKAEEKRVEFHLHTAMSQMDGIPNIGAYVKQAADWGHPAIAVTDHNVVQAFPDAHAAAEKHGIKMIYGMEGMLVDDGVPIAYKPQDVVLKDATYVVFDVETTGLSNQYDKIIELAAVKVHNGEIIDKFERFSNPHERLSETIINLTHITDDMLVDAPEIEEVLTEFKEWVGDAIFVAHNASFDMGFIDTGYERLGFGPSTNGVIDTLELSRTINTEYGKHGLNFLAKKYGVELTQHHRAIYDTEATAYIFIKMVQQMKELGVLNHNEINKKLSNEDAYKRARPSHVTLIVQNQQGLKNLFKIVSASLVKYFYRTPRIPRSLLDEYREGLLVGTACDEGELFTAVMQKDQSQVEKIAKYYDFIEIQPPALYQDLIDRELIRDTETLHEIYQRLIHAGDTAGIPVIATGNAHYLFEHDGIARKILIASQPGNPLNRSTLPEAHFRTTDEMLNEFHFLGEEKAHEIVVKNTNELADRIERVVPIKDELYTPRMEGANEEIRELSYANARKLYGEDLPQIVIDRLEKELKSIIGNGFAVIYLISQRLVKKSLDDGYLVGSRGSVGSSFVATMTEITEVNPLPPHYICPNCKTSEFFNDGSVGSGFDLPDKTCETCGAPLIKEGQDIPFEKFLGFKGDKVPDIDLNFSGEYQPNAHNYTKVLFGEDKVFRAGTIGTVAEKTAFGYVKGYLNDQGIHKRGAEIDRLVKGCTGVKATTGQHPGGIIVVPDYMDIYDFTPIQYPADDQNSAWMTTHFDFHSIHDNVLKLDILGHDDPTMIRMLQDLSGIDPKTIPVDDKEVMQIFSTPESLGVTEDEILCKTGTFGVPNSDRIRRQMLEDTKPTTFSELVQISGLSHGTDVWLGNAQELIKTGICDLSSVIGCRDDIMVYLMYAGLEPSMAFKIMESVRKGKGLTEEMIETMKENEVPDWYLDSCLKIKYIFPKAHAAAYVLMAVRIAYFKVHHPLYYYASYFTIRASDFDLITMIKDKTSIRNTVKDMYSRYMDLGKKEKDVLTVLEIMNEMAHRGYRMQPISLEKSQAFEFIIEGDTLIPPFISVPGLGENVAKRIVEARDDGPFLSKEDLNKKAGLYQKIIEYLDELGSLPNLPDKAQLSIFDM

T2: Streptococcus pyogenes δ′ subunit (holB gene product) (Streptococcus pyogenes)
T2 construct: also called delta prime; 6′
T2 chain: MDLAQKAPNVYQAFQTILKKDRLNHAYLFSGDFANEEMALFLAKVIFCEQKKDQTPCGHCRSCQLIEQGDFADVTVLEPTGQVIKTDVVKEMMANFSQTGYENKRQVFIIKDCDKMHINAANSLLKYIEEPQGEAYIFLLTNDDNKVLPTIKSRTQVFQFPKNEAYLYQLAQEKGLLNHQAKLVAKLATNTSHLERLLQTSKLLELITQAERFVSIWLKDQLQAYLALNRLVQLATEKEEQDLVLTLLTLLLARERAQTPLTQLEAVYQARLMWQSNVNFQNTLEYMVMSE

B1: Streptococcus pyogenes δ subunit (holA gene product) (other)
chain: MIAIEKIEKLSKENLGLITLVTGDDIGQYSQLKSRLMEQIAFDKDDLAYSYFDMSEAAYQDAEMDLVSLPFFAEQKVVIFDHLLDITTNKKSFLKEKDLKAFEAYLENPLETTRLIIFAPGKLDSKRRLVKLLKRDALVLEANPLKEAELRTYFQKYSHQLGLGFESGAFDQLLLKSNDDFSQIMKNMAFLKAYKKTGNISLTDIEQAIPKSLQDNIFDLTRLVLGGKIDAARDLIHDLRLSGEDDIKLIAIMLGQFRLFLQLTILARDVKNEQQLVISLSDILGRRVNPYQVKYALKDSRTLSLAFLTGAVKTLIETDYQIKTGLYEKSYLVDIALLKIMTHSQK
notes: also called delta; putative δ

What was measured:
[1] = target: Pol I (Bacillus subtilis, UniProt O34996); details: cited from earlier work
[2] = target: T1, Peak4 (Pol III-L); assay: DNA polymerase assay in presence or absence of pCMB, NEM, 0.15 M KCl; type: biochemical; details: S. aureus Peak4
Protocol: (§1) These assays were used in the purification of DNA polymerases from S. aureus cell extracts. Assays contained 2.5 μg activated calf thymus DNA in a final volume of 25 μl replication buffer. An aliquot of the fraction to be assayed was added to the assay mixture on ice followed by incubation at 37° C. for 5 min. DNA synthesis was quantitated using DE81 paper as described in Rowen et al., “Primase, the DnaG Protein of Escherichia coli. An Enzyme Which Starts DNA Chains,” J. Biol. Chem., 253:758-764 (1979), which is hereby incorporated by reference.
(§2) Next, it was determined which of these peaks of DNA polymerase activity correspond to DNA polymerases 1, I, and III, and which peak is the unidentified DNA polymerase. In the Gram positive bacterium B. subtilis, Pol III is inhibited by pCMB, NEM, and 0.15 M NaCl, Pol II is inhibited by KCl, but not NEM or 0.15 M KCL, and Pol I is not inhibited by any of these treatments (Gass et al., “Further Genetic and Enzymological Characterization of the Three Bacillus subtilis Deoxyribonucleic Acid Polymerases,” J. Biol. Chem., 248:7688-7700 (1973), which is hereby incorporated by reference).

[3] = test system: Pol II; details: cited from earlier work
[4] = target: Pol III-L (Bacillus subtilis, UniProt P13267); details: Pol III / Pol III-L; cited from earlier work
[5] = test system: Peak3 (Pol I); assay: DNA polymerase assay in presence or absence of pCMB, NEM, 0.15 M KCl; type: biochemical, Staphylococcus aureus; details: S. aureus Peak3
Protocol: (§3) These assays were used in the purification of DNA polymerases from S. aureus cell extracts. Assays contained 2.5 μg activated calf thymus DNA in a final volume of 25 μl replication buffer. An aliquot of the fraction to be assayed was added to the assay mixture on ice followed by incubation at 37° C. for 5 min.
(§4) Next, it was determined which of these peaks of DNA polymerase activity correspond to DNA polymerases 1, I, and III, and which peak is the unidentified DNA polymerase. In the Gram positive bacterium B. subtilis, Pol III is inhibited by pCMB, NEM, and 0.15 M NaCl, Pol II is inhibited by KCl, but not NEM or 0.15 M KCL, and Pol I is not inhibited by any of these treatments (Gass et al., “Further Genetic and Enzymological Characterization of the Three Bacillus subtilis Deoxyribonucleic Acid Polymerases,” J. Biol. Chem., 248:7688-7700 (1973), which is hereby incorporated by reference). […] Peak 3 clearly corresponded to Pol I, because it was not inhibited by NEM, pCMB, or 0.15 M NaCl. Peak 2 correspond to Pol II, because it was not inhibited by NEM, but was inhibited by pCMB and 0.15 M NaCl. Peaks 1 and 4 both had characteristics that mimic Pol III; however, peak 4 elutes on MonoQ at a similar position as Pol III-L expressed in E. coli (see FIG. 2B).

[6] = test system: Peak1 (new polymerase); assay: as above; type: biochemical, Staphylococcus aureus; details: S. aureus Peak1
Protocol: as §3, §4

[7] = test system: Peak2 (Pol II); assay: as above; type: biochemical, Staphylococcus aureus; details: S. aureus Peak2
Protocol: as §1, §2

[8] = target: Staphylococcus aureus beta subunit (dnaN gene product) (Staphylococcus aureus) (UniProt P0A022); assay: cell-based or functional assay
[9] = target: B1; assay: gel filtration on Superose 6 in buffer A with 100 mM NaCl, SDS-PAGE of fractions
[10] = target: T2, Streptococcus pyogenes δ′ subunit (holB …); assay: as above
[11] = target: T2, Streptococcus pyogenes δ′ subunit (holB …); assay: gel filtration on Superose 6 of an α-large, τ, δ, δ′ mixture, SDS-PAGE of fractions

Pol I, sequence (O34996 whole entry): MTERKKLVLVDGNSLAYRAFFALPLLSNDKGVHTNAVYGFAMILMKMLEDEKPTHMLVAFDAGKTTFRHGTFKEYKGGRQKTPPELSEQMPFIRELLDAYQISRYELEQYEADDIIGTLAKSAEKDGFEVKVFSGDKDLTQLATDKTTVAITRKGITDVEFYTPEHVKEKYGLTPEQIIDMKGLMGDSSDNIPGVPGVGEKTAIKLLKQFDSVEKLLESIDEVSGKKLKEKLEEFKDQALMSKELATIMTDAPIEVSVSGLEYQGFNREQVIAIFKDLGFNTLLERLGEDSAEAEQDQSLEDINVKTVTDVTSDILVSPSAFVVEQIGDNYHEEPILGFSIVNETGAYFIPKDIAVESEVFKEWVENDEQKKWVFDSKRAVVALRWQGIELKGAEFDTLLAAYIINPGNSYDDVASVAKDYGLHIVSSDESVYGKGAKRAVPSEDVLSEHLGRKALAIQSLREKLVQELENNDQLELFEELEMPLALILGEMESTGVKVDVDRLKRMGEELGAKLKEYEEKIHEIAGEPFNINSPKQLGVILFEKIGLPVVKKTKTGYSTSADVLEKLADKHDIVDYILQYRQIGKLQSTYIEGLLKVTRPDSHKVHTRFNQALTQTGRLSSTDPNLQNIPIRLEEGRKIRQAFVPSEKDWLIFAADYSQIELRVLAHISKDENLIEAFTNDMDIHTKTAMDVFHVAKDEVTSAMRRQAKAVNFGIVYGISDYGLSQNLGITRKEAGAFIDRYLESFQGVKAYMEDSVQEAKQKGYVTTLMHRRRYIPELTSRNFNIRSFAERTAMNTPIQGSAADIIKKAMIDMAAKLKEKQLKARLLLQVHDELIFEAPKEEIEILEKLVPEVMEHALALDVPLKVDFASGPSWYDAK
Pol III-L, sequence (P13267 whole entry): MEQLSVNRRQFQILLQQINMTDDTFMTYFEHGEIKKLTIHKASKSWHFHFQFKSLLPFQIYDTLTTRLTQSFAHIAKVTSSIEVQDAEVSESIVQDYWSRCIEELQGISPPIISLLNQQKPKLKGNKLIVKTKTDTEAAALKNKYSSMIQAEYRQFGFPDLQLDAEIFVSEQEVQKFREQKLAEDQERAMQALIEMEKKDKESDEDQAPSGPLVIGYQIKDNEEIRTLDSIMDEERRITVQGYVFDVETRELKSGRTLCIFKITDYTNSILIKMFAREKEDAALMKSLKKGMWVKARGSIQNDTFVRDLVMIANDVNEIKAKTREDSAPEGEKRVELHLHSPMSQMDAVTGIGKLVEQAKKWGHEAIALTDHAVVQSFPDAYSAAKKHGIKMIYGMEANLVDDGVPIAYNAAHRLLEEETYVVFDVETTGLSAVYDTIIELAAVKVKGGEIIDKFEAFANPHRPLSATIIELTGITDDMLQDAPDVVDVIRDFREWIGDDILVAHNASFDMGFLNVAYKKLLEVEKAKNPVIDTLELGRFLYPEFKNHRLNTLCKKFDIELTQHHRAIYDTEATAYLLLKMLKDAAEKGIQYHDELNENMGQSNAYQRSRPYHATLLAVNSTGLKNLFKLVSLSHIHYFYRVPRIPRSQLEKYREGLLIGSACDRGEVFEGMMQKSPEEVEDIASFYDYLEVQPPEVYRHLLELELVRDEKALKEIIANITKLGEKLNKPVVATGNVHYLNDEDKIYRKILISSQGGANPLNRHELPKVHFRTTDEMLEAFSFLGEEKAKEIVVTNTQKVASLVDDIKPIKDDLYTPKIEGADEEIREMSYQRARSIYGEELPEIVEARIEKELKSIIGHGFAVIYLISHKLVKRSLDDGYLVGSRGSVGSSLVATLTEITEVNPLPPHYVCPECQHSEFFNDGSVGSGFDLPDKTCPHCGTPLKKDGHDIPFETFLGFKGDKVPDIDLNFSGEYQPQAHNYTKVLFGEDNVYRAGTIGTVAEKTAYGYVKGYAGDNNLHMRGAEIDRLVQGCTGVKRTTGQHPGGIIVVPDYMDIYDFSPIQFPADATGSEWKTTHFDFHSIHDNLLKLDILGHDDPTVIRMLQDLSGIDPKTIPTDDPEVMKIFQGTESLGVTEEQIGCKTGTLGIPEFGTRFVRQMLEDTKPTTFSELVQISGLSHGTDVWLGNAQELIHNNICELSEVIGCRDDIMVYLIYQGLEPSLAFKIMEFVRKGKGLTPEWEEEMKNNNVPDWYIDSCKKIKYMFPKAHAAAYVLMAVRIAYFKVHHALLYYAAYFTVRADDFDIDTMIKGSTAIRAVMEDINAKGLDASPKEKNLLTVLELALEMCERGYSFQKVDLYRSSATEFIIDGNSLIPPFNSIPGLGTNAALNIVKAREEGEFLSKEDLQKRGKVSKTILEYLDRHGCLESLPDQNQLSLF

Molecule | Expected characteristics: inhibition of polymerase activity [1] | Observed characteristics: inhibition of polymerase activity [2] | Expected characteristics: inhibition of polymerase activity [3] | Expected characteristics: inhibition of polymerase activity [4] | Observed characteristics: inhibition of polymerase activity [5] | Observed characteristics: inhibition of polymerase activity [6] | Observed characteristics: inhibition of polymerase activity [7] | further results
CCN1C(=O)C=CC1=O [NEM] | not inhibited (Not inhibited is defined as greater than 75% remaining activity) | inhibited (Inhibited is defined as less than 40% remaining activity) | not inhibited (Not inhibited is defined as greater than 75% remaining activity) | inhibited (Inhibited is defined as less than 40% remaining activity) | not inhibited (Not inhibited is defined as greater than 75% remaining activity) | inhibited (Inhibited is defined as less than 40% remaining activity) | not inhibited (Not inhibited is defined as greater than 75% remaining activity) | 
Escherichia coli clamp loader complex (gamma complex: gamma, delta, delta prime, chi, psi) (from UniProt P06710 2-431; P28630 1-343; P28631 1-334; P28905 1-147; P28632 1-137) |  |  |  |  |  |  |  | Total DNA synthesis on circular singly primed M13mp18 ssDNA, lane 3 (Pol III-L, S. aureus beta and E. coli clamp loader complex; lane 1 Pol III-L alone 0.6 pmol) [8]: 0.99 pmol
O=C(O)c1cc[c]([Hg][Cl])cc1 [pCMB] | not inhibited* (Not inhibited is defined as greater than 75% remaining activity) | inhibited (Inhibited is defined as less than 40% remaining activity) | inhibited** (Inhibited is defined as less than 40% remaining activity) | inhibited (Inhibited is defined as less than 40% remaining activity) | not inhibited (Not inhibited is defined as greater than 75% remaining activity) | inhibited (Inhibited is defined as less than 40% remaining activity) | inhibited (Inhibited is defined as less than 40% remaining activity) | 
Streptococcus pyogenes τ subunit (dnaX gene product) (other, also called tau; DnaX-protein) MYQALYRKYRSQTFDEMVGQSVISTTLKQAVESGKISHAYLFSGPRGTGKTSAAKIFAKAMNCPNQVDGEPCNQCDICRDITNGSLEDVIEIDAASNNGVDEIRDIRDKSTYAPSRATYKVYIIDEVHMLSTGAFNALLKTLEEPTENVFILATTELHKIPATILSRVQRFEFKAIKQKAIREHLAWVLDKEGIAYEVDALNLIARRAEGGMRDALSILDQALSLSPDNQVAIAIAEEITGSISILALGDYVRYVSQEQATQALAALETIYDSGKSMSRFATDLLTYLRDLLVVKAGGDNQRQSAVFDTNLSLSIDRIFQMITVVTSHLPEIKKGTHPRIYAEMMTIQLAQKEQILSQVNLSGELISEIETLKNELAQLKQQLSQLQSRPDSLARSDKTKPKTTSYRVDRVTILKIMEETVRNSQQSRQYLDALKNAWNEILDNISAQDRALLMGSEPVLANSENAILAFEAAFNAEQVMSRNNLNDMFGNIMSKAAGFSPNILAVPRTDFQHIRKEFAQQMKSQKDSVQEEQEVALDIPEGFDFLLDKINTIDD |  |  |  |  |  |  |  | binding result [9]: no binding (tested: δ (200 µg) in 100 µl); binding result [10]: no binding (tested: δ′ (200 µg) in 100 µl)
B1 |  |  |  |  |  |  |  | binding result [11]: binds
